How the values were obtained:
HCT-116 = assay: Antiproliferative activity against human HCT116 cells after 72 hrs; type: functional
[1] = target: Voltage-gated inwardly rectifying potassium channel KCNH2 (Homo sapiens, UniProt Q12809); assay: Inhibition of human ERG
[2] = Log D at pH 7 by HPLC; type: physicochemical; settings: buffer

Sequence of Voltage-gated inwardly rectifying potassium channel KCNH2 (Q12809 whole entry): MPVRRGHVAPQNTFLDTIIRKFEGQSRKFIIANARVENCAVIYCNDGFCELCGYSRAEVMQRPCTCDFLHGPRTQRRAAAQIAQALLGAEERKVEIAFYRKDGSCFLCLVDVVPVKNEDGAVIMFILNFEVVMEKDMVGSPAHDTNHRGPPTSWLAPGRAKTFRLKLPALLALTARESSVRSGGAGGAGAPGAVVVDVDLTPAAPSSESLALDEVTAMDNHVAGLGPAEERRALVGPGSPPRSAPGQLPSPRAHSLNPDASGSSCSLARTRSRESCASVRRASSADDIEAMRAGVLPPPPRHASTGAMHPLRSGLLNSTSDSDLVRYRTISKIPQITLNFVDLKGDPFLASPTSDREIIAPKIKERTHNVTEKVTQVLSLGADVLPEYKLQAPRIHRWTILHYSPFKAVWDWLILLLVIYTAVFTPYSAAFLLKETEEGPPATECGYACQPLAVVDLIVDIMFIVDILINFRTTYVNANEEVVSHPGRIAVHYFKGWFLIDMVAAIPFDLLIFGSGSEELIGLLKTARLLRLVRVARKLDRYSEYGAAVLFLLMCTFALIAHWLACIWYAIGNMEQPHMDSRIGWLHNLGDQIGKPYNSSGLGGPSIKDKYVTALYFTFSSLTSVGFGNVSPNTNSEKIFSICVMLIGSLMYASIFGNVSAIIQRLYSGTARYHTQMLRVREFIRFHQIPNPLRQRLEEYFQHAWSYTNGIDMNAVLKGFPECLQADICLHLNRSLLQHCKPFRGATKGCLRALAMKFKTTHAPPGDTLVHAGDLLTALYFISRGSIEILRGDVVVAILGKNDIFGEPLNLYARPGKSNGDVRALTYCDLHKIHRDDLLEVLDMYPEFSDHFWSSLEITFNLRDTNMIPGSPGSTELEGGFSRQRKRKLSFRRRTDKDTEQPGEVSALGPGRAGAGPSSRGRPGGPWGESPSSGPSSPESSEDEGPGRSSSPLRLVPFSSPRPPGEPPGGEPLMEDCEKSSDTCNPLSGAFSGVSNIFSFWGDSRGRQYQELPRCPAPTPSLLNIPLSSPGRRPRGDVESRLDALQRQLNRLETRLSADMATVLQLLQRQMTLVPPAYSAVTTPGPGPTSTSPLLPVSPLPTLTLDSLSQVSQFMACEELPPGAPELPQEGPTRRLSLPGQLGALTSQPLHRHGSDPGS

With `Nc1ccc(-c2cccs2)cc1NC(=O)c1ccc(C(N)C(=O)O)cc1` (stereo unspecified) as the compound, how does the Activity (HCT-116) read?
Its Activity is >20000 nM.

With `CNC(=O)C(NS(C)(=O)=O)c1ccc(C(=O)Nc2cc(-c3cccs3)ccc2N)cc1` (stereo unspecified) as the compound, how does the Activity (HCT-116) read?
Its Activity is 780 nM.

Which results are given for `CCOC(=O)C(N)c1ccc(C(=O)Nc2cc(-c3cccs3)ccc2N)cc1` (stereo unspecified)?
IC50 [1]: 5.7 µM; Activity (HCT-116): 1100 nM

With `Nc1ccc(-c2ccccc2)cc1NC(=O)c1ccccc1` as the compound, how does the Activity (HCT-116) read?
The Activity was 1700 nM.

Which Activity (HCT-116) does the source give for `CN(C)C(=O)C(N)c1ccc(C(=O)Nc2cc(-c3cccs3)ccc2N)cc1` (stereo unspecified) here?
The Activity was 420 nM.

Which Activity (HCT-116) does the source give for `NC(=O)[C@H](N)c1ccc(C(=O)Nc2cc(-c3cccs3)ccc2N)cc1` here?
The Activity was 350 nM.

With `CNC(=O)NC(C(=O)NC)c1ccc(C(=O)Nc2cc(-c3cccs3)ccc2N)cc1` (stereo unspecified) as the compound, how does the Activity (HCT-116) read?
The Activity was 960 nM.

For `CNC(=O)[C@H](N)c1ccc(C(=O)Nc2cc(-c3cccs3)ccc2N)cc1`, which Activity (HCT-116) is on record?
Its Activity is 420 nM.

With `Nc1ccc(-c2cccs2)cc1NC(=O)c1ccccc1` as the compound, how does the Activity (HCT-116) read?
The Activity was 720 nM.

And the logD [2]?
Its logD is 2.7.
